From patent US8541460B2, “PDK-1/Akt signaling inhibitors” (The Ohio State University, priority 2003, dated 2013)

Legend:
[1] = system: DU-145; experiment: NCI DTP cell line screen (SRB), Prostate Cancer; format: cell-based
Experimental: (§1) Screening of compounds 70 and 71 against several cancer cell lines The human tumor cell lines of the cancer screening panel are grown in RPMI 1640 medium containing 5% fetal bovine serum and 2 mM L-glutamine. For a typical screening experiment, cells are inoculated into 96 well microtiter plates in 100 μL at plating densities ranging from 5,000 to 40,000 cells/well depending on the doubling time of individual cell lines. After cell inoculation, the microtiter plates are incubated at 37° C., 5% CO2, 95% air and 100% relative humidity for 24 h prior to addition of experimental drugs.
(§2) After 24 h, two plates of each cell line are fixed in situ with TCA, to represent a measurement of the cell population for each cell line at the time of drug addition (Tz). Experimental drugs are solubilized in dimethyl sulfoxide at 400-fold the desired final maximum test concentration and stored frozen prior to use. At the time of drug addition, an aliquot of frozen concentrate is thawed and diluted to twice the desired final maximum test concentration with complete medium containing 50 μg/ml gentamicin. Additional four, 10-fold or ½ log serial dilutions are made to provide a total of five drug concentrations plus control. Aliquots of 100 μl of these different drug dilutions are added to the appropriate microtiter wells already containing 100 μl of medium, resulting in the required final drug concentrations.
(§3) Following drug addition, the plates are incubated for an additional 48 h at 37° C., 5% CO2, 95% air, and 100% relative humidity. For adherent cells, the assay is terminated by the addition of cold TCA. Cells are fixed in situ by the gentle addition of 50 μl of cold 50% (w/v) TCA (final concentration, 10% TCA) and incubated for 60 minutes at 4° C. The supernatant is discarded, and the plates are washed five times with tap water and air dried. Sulforhodamine B (SRB) solution (100 μl) at 0.4% (w/v) in 1% acetic acid is added to each well, and plates are incubated for 10 minutes at room temperature. After staining, unbound dye is removed by washing five times with 1% acetic acid and the plates are air dried. Bound stain is subsequently solubilized with 10 mM trizma base, and the absorbance is read on an automated plate reader at a wavelength of 515 nm. For suspension cells, the methodology is the same except that the assay is terminated by fixing settled cells at the bottom of the wells by gently adding 50 μl of 80% TCA (final concentration, 16% TCA). Using the seven absorbance measurements [time zero, (Tz), control growth, (C), and test growth in the presence of drug at the five concentration levels (Ti)], the percentage growth is calculated at each of the drug concentrations levels. Percentage growth inhibition is calculated as: [(Ti−Tz)/(C−Tz)]×100 for concentrations for which Ti>/=Tz [(Ti−Tz)/Tz]×100 for concentrations for which Ti<Tz
(§4) Three dose response parameters are calculated for each experimental agent. […] The drug concentration resulting in total growth inhibition (TGI) is calculated from Ti=Tz. […] Values are calculated for each of these three parameters if the level of activity is reached; however, if the effect is not reached or is exceeded, the value for that parameter is expressed as greater or less than the maximum or minimum concentration tested.
(§5) The methods described were used to test compounds 70 and 71 on a panel of sixty cell lines under a screening service provided by the Developmental Therapeutics Program at the National Institutes of Health. Shown in FIG. 1C are 1, RPMI-8226 leukemia cells; 2; NCI-H322M non-small cell lung cancer cells; 3, HT29 colon cancer cells; 4, U251 CNS cancer cells; 5, SK-MEL-28 melanoma cancer cells; 6, SK-OV-3 ovarian cancer cells; 7, RXF 393 renal cancer cells; 8, PC-3 prostate cancer cells; 9, MDA-MB-231 breast cancer cells.

[2] = system: MALME-3M; experiment: NCI DTP cell line screen (SRB), Melanoma; format: cell-based
[3] = system: NCI/ADR-RES; experiment: NCI DTP cell line screen (SRB), Breast Cancer; format: cell-based
Experimental: as §1, §2, §3, §4, §5

[4] = system: HS 578T; experiment: NCI DTP cell line screen (SRB), Breast Cancer; format: cell-based
Experimental: as §1, §2, §3, §4, §5

[5] = system: COLO 205; experiment: NCI DTP cell line screen (SRB), Colon Cancer; format: cell-based, human
Experimental: as §1, §2, §3, §4, §5

[6] = system: SR; experiment: NCI DTP cell line screen (SRB), Leukemia; format: cell-based
Experimental: as §1, §2, §3, §4, §5

[7] = system: K-562; experiment: NCI DTP cell line screen (SRB), Leukemia; format: cell-based
Experimental: as §1, §2, §3, §4, §5

[8] = system: MOLT-4; experiment: NCI DTP cell line screen (SRB), Leukemia; format: cell-based
Experimental: as §1, §2, §3, §4, §5

[9] = read-out: LC50 (the source's name)
[10] = HS 578T, Log10 Concentration −4.0
[11] = HS 578T, Log10 Concentration −5.0
[12] = HS 578T, Log10 Concentration −6.0
[13] = HS 578T, Log10 Concentration −7.0
[14] = HS 578T, Log10 Concentration −8.0

N=C(N)Nc1ccc(-n2nc(C(F)(F)F)cc2-c2ccc3c(ccc4ccccc43)c2)cc1 [Compound 71, 4-[5-(2-Phenanthrenyl)-3-(trifluoromethyl)-1H-pyrazol-1-yl]-phenyl-guanidine]
GI50 [1]: 1550 nM
TGI [1]: 2.89E−06
Mean Optical Densities ([1]; Log10 Concentration −4.0): −0.019
Percent Growth ([1]; Log10 Concentration −4.0): −100%
Mean Optical Densities ([1]; Log10 Concentration −5.0): −0.074
Percent Growth ([1]; Log10 Concentration −5.0): −100%
Mean Optical Densities ([1]; Log10 Concentration −6.0): 0.760
Percent Growth ([1]; Log10 Concentration −6.0): 85%
Mean Optical Densities ([1]; Log10 Concentration −7.0): 0.767
Percent Growth ([1]; Log10 Concentration −7.0): 87%
Mean Optical Densities ([1]; Log10 Concentration −8.0): 0.694
Percent Growth ([1]; Log10 Concentration −8.0): 72%
CC50 [1, 9]: 5370 nM
GI50 [2]: 1010 nM
TGI [2]: 2.33E−06
Mean Optical Densities ([2]; Log10 Concentration −4.0): 0.333
Percent Growth ([2]; Log10 Concentration −4.0): −50%
Mean Optical Densities ([2]; Log10 Concentration −5.0): 0.089
Percent Growth ([2]; Log10 Concentration −5.0): −87%
Mean Optical Densities ([2]; Log10 Concentration −6.0): 0.826
Percent Growth ([2]; Log10 Concentration −6.0): 50%
Mean Optical Densities ([2]; Log10 Concentration −7.0): 0.838
Percent Growth ([2]; Log10 Concentration −7.0): 54%
Mean Optical Densities ([2]; Log10 Concentration −8.0): 0.832
Percent Growth ([2]; Log10 Concentration −8.0): 52%
CC50 [2, 9]: 100000 nM
GI50 [3]: 2640 nM
TGI [3]: 7.73E−06
Mean Optical Densities ([3]; Log10 Concentration −4.0): 0.294
Percent Growth ([3]; Log10 Concentration −4.0): −47%
Mean Optical Densities ([3]; Log10 Concentration −5.0): 0.490
Percent Growth ([3]; Log10 Concentration −5.0): −12%
Mean Optical Densities ([3]; Log10 Concentration −6.0): 1.874
Percent Growth ([3]; Log10 Concentration −6.0): 95%
Mean Optical Densities ([3]; Log10 Concentration −7.0): 1.882
Percent Growth ([3]; Log10 Concentration −7.0): 96%
Mean Optical Densities ([3]; Log10 Concentration −8.0): 1.920
Percent Growth ([3]; Log10 Concentration −8.0): 98%
CC50 [3, 9]: > 100000 nM
GI50 ([4]; HS 578T): 1860 nM
TGI ([4]; HS 578T): 3.78E−06
Mean Optical Densities [4, 10]: 0.333
Percent Growth [4, 10]: −38%
Mean Optical Densities [4, 11]: 0.168
Percent Growth [4, 11]: −69%
Mean Optical Densities [4, 12]: 1.127
Percent Growth [4, 12]: 94%
Mean Optical Densities [4, 13]: 1.165
Percent Growth [4, 13]: 100%
Mean Optical Densities [4, 14]: 1.099
Percent Growth [4, 14]: 89%
GI50 [5]: 1360 nM
TGI [5]: 2.69E−06
Mean Optical Densities ([5]; Log10 Concentration −4.0): 0.151
Percent Growth ([5]; Log10 Concentration −4.0): −32%
Mean Optical Densities ([5]; Log10 Concentration −5.0): 0.009
Percent Growth ([5]; Log10 Concentration −5.0): −96%
Mean Optical Densities ([5]; Log10 Concentration −6.0): 0.930
Percent Growth ([5]; Log10 Concentration −6.0): 73%
Mean Optical Densities ([5]; Log10 Concentration −7.0): 1.028
Percent Growth ([5]; Log10 Concentration −7.0): 83%
Mean Optical Densities ([5]; Log10 Concentration −8.0): 1.146
Percent Growth ([5]; Log10 Concentration −8.0): 95%
GI50 [6]: 38.6 nM
TGI [6]: 3.79E−07
Mean Optical Densities ([6]; Log10 Concentration −4.0): 0.287
Percent Growth ([6]; Log10 Concentration −4.0): −21%
Mean Optical Densities ([6]; Log10 Concentration −5.0): 0.234
Percent Growth ([6]; Log10 Concentration −5.0): −36%
Mean Optical Densities ([6]; Log10 Concentration −6.0): 0.254
Percent Growth ([6]; Log10 Concentration −6.0): −30%
Mean Optical Densities ([6]; Log10 Concentration −7.0): 0.583
Percent Growth ([6]; Log10 Concentration −7.0): 42%
Mean Optical Densities ([6]; Log10 Concentration −8.0): 0.688
Percent Growth ([6]; Log10 Concentration −8.0): 62%
CC50 [6, 9]: > 100000 nM
GI50 [7]: 326 nM
TGI [7]: 1.52E−06
Mean Optical Densities ([7]; Log10 Concentration −4.0): 0.119
Percent Growth ([7]; Log10 Concentration −4.0): −60%
Mean Optical Densities ([7]; Log10 Concentration −5.0): 0.126
Percent Growth ([7]; Log10 Concentration −5.0): −58%
Mean Optical Densities ([7]; Log10 Concentration −6.0): 0.438
Percent Growth ([7]; Log10 Concentration −6.0): 13%
Mean Optical Densities ([7]; Log10 Concentration −7.0): 1.283
Percent Growth ([7]; Log10 Concentration −7.0): 89%
Mean Optical Densities ([7]; Log10 Concentration −8.0): 1.338
Percent Growth ([7]; Log10 Concentration −8.0): 94%
CC50 [7, 9]: 7770 nM
GI50 [8]: 233 nM
TGI [8]: 1.98E−06
Mean Optical Densities ([8]; Log10 Concentration −4.0): 0.143
Percent Growth ([8]; Log10 Concentration −4.0): −54%
Mean Optical Densities ([8]; Log10 Concentration −5.0): 0.143
Percent Growth ([8]; Log10 Concentration −5.0): −54%
Mean Optical Densities ([8]; Log10 Concentration −6.0): 0.461
Percent Growth ([8]; Log10 Concentration −6.0): 23%
Mean Optical Densities ([8]; Log10 Concentration −7.0): 0.736
Percent Growth ([8]; Log10 Concentration −7.0): 66%
Mean Optical Densities ([8]; Log10 Concentration −8.0): 0.833
Percent Growth ([8]; Log10 Concentration −8.0): 81%
CC50 [8, 9]: 8750 nM

NCC(=O)Nc1ccc(-n2nc(C(F)(F)F)cc2-c2ccc3c(ccc4ccccc43)c2)cc1 [Compound 70, 2-Amino-N-{4-[5-(2-phenanthrenyl)-3-(trifluoromethyl)-1H-pyrazol-1-yl]-phenyl}-acetamide]
TGI [1]: 3.47E−06
Percent Growth ([1]; Log10 Concentration −4.0): −60%
Percent Growth ([1]; Log10 Concentration −5.0): −76%
Percent Growth ([1]; Log10 Concentration −6.0): 90%
Percent Growth ([1]; Log10 Concentration −7.0): 109%
Percent Growth ([1]; Log10 Concentration −8.0): 105%
TGI [2]: 3.67E−06
Percent Growth ([2]; Log10 Concentration −4.0): −56%
Percent Growth ([2]; Log10 Concentration −5.0): −67%
Percent Growth ([2]; Log10 Concentration −6.0): 87%
Percent Growth ([2]; Log10 Concentration −7.0): 93%
Percent Growth ([2]; Log10 Concentration −8.0): 92%
TGI [3]: 2.85E−06
Percent Growth ([3]; Log10 Concentration −4.0): −62%
Percent Growth ([3]; Log10 Concentration −5.0): −59%
Percent Growth ([3]; Log10 Concentration −6.0): 49%
Percent Growth ([3]; Log10 Concentration −7.0): 98%
Percent Growth ([3]; Log10 Concentration −8.0): 98%
TGI ([4]; HS 578T): 5.25E−06
Percent Growth [4, 10]: −38%
Percent Growth [4, 11]: −34%
Percent Growth [4, 12]: 88%
Percent Growth [4, 13]: 99%
Percent Growth [4, 14]: 105%
CC50 ([4]; Homo sapiens, Hs-578T, read-out: LC50): > 100000 nM
Percent Growth ([5]; Log10 Concentration −4.0): 1%
Percent Growth ([5]; Log10 Concentration −5.0): −53%
Percent Growth ([5]; Log10 Concentration −6.0): 58%
Percent Growth ([5]; Log10 Concentration −7.0): 87%
Percent Growth ([5]; Log10 Concentration −8.0): 89%
TGI [6]: 4.17E−06
Percent Growth ([6]; Log10 Concentration −5.0): −27%
Percent Growth ([6]; Log10 Concentration −6.0): 45%
Percent Growth ([6]; Log10 Concentration −7.0): 80%
Percent Growth ([6]; Log10 Concentration −8.0): 84%
TGI [7]: 3.34E−06
Percent Growth ([7]; Log10 Concentration −4.0): −17%
Percent Growth ([7]; Log10 Concentration −5.0): −30%
Percent Growth ([7]; Log10 Concentration −6.0): 33%
Percent Growth ([7]; Log10 Concentration −7.0): 62%
Percent Growth ([7]; Log10 Concentration −8.0): 97%
TGI [8]: 3.10E−06
Percent Growth ([8]; Log10 Concentration −4.0): −6%
Percent Growth ([8]; Log10 Concentration −5.0): −42%
Percent Growth ([8]; Log10 Concentration −6.0): 41%
Percent Growth ([8]; Log10 Concentration −7.0): 87%
Percent Growth ([8]; Log10 Concentration −8.0): 89%
